# ChEMBL document CHEMBL1201862, “PubChem BioAssay data set” (2004)
#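 Step 1: Grow cells in 96-well plates. Step 2: Expose to compound for 48 hours at 5 concentrations. Step 3: Interpolate endpoints linearly; if unreached, use highest concentration. GI50 is the concentration that inhibits growth by half.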 The source made the active and inactive calls. Rule as the data show it: active = GI50 up to about 1.1 µM and inactive = higher.
# How the values were obtained:
# Test in all cases: NCI anticancer screen, dose series, 48 h
# [1] = tested on: A549
# [2] = tested on: CAKI-1
# [3] = tested on: COLO 205
# [4] = tested on: HL-60
# [5] = tested on: LOX IMVI
# [6] = tested on: NCI-H23
# [7] = tested on: NCI-H460
# [8] = tested on: OVCAR-4
# [9] = tested on: RPMI-8226
# [10] = tested on: SF-295
# [11] = tested on: SK-MEL-5
# [12] = tested on: SNB-19
# [13] = tested on: SNB-75
# [14] = tested on: TK-10
# [15] = tested on: UACC-62
# [16] = tested on: NCI-H522
# [17] = tested on: OVCAR-3
# [18] = tested on: SK-OV-3
SMILES,GI50 [1],GI50 [2],GI50 [3],GI50 [4],GI50 [5],GI50 [6],GI50 [7],GI50 [8],GI50 [9],GI50 [10],GI50 [11],GI50 [12],GI50 [13],GI50 [14],GI50 [15],GI50 [16],GI50 [17],GI50 [18]
CC(C)(C)C1CCC2c3c([nH]c4ccccc34)C3C(=O)N(c4ccc(Br)cc4)C(=O)C3C2C1 (configuration not stated),17.7 µM (inactive),19.9 µM (inactive),11.1 µM (inactive),13.3 µM (inactive),15.7 µM (inactive),18.8 µM (inactive),17.7 µM (inactive),16.9 µM (inactive),17.1 µM (inactive),25 µM (inactive),25.8 µM (inactive),16.9 µM (inactive),19.5 µM (inactive),20.5 µM (inactive),26.9 µM (inactive),,,
CC(C)=CC(=O)Oc1ccc([N+](=O)[O-])cc1,> 100 µM (inactive),20.7 µM (inactive),> 100 µM (inactive),24.7 µM (inactive),,> 100 µM (inactive),> 100 µM (inactive),> 100 µM (inactive),> 100 µM (inactive),> 100 µM (inactive),> 100 µM (inactive),> 100 µM (inactive),> 100 µM (inactive),> 100 µM (inactive),> 100 µM (inactive),2.18 µM (inactive),> 100 µM (inactive),> 100 µM (inactive)
Cc1cc(NS(=O)(=O)c2ccc(NC(=O)c3cccc4c(N)c5ccccc5nc34)cc2)no1,> 100 µM (inactive),34.8 µM (inactive),22.6 µM (inactive),,23.4 µM (inactive),21.8 µM (inactive),32.9 µM (inactive),27.3 µM (inactive),24 µM (inactive),23.6 µM (inactive),> 10 µM (inactive),17.4 µM (inactive),68.7 µM (inactive),43.1 µM (inactive),28 µM (inactive),17 µM (inactive),21.7 µM (inactive),32.5 µM (inactive)
CC1OC(n2cc(Cl)c(=O)[nH]c2=O)C=C(OC(=O)c2ccccc2)C1=O (configuration not stated),> 100 µM (inactive),> 100 µM (inactive),> 100 µM (inactive),> 100 µM (inactive),> 100 µM (inactive),> 100 µM (inactive),> 100 µM (inactive),> 100 µM (inactive),> 100 µM (inactive),> 100 µM (inactive),> 100 µM (inactive),> 100 µM (inactive),> 100 µM (inactive),> 100 µM (inactive),> 100 µM (inactive),,> 100 µM (inactive),> 100 µM (inactive)
O=C1CCCc2ccc([N+](=O)[O-])c(O)c21,96.2 µM (inactive),37.9 µM (inactive),> 100 µM (inactive),92.5 µM (inactive),> 100 µM (inactive),> 100 µM (inactive),> 100 µM (inactive),> 100 µM (inactive),,> 100 µM (inactive),> 100 µM (inactive),82.6 µM (inactive),45.6 µM (inactive),55.7 µM (inactive),54.6 µM (inactive),66.8 µM (inactive),> 100 µM (inactive),> 100 µM (inactive)
Sc1nnc(/C=C/c2ccc(Cl)c(Cl)c2)[nH]1,> 100 µM (inactive),,0.0202 µM (active),> 100 µM (inactive),> 100 µM (inactive),> 100 µM (inactive),> 100 µM (inactive),,,> 100 µM (inactive),44.8 µM (inactive),> 100 µM (inactive),,> 100 µM (inactive),> 100 µM (inactive),94 µM (inactive),77.1 µM (inactive),0.0173 µM (active)
Cc1noc2cccc(O)c12,> 100 µM (inactive),> 100 µM (inactive),> 100 µM (inactive),> 100 µM (inactive),> 100 µM (inactive),> 100 µM (inactive),> 100 µM (inactive),> 100 µM (inactive),,> 100 µM (inactive),> 100 µM (inactive),> 100 µM (inactive),> 100 µM (inactive),> 100 µM (inactive),> 100 µM (inactive),> 100 µM (inactive),> 100 µM (inactive),> 100 µM (inactive)
COc1nc(=O)cc(N)n1C1OC(CO)C(O)C1O (configuration not stated),> 100 µM (inactive),> 100 µM (inactive),> 100 µM (inactive),> 100 µM (inactive),> 100 µM (inactive),> 100 µM (inactive),> 100 µM (inactive),,> 100 µM (inactive),> 100 µM (inactive),> 100 µM (inactive),> 100 µM (inactive),> 100 µM (inactive),> 100 µM (inactive),> 100 µM (inactive),> 100 µM (inactive),> 100 µM (inactive),> 100 µM (inactive)
COc1ccc(C=O)c(N(C)C(=O)C(C)(C)C)c1,> 100 µM (inactive),,> 100 µM (inactive),> 100 µM (inactive),> 100 µM (inactive),> 100 µM (inactive),> 100 µM (inactive),> 100 µM (inactive),> 100 µM (inactive),> 100 µM (inactive),> 100 µM (inactive),> 100 µM (inactive),> 100 µM (inactive),> 100 µM (inactive),> 100 µM (inactive),> 100 µM (inactive),> 100 µM (inactive),> 100 µM (inactive)
C=C(c1ccccc1N)[C@@]1(O)C[C@H](/C(=C\C)CO)C[C@@H]1NCc1ccccc1,37 µM (inactive),,16.7 µM (inactive),13.3 µM (inactive),17.1 µM (inactive),29.9 µM (inactive),20.7 µM (inactive),26.7 µM (inactive),19.1 µM (inactive),16.9 µM (inactive),17.1 µM (inactive),23.2 µM (inactive),10.8 µM (inactive),20.8 µM (inactive),28.6 µM (inactive),17.1 µM (inactive),18.2 µM (inactive),21.5 µM (inactive)
S=P(c1ccccc1)(c1ccccc1)C1(C2(P(=S)(c3ccccc3)c3ccccc3)CC2)CC1,> 100 µM (inactive),,> 100 µM (inactive),,> 100 µM (inactive),> 100 µM (inactive),> 100 µM (inactive),> 100 µM (inactive),,> 100 µM (inactive),> 100 µM (inactive),> 100 µM (inactive),> 100 µM (inactive),> 100 µM (inactive),> 100 µM (inactive),> 100 µM (inactive),,
Cc1ccccc1NC(=O)C(=O)C(C#N)c1ccc(Cl)cc1 (configuration not stated),95.5 µM (inactive),> 100 µM (inactive),31.3 µM (inactive),27.8 µM (inactive),17.3 µM (inactive),56.5 µM (inactive),21.3 µM (inactive),,22.6 µM (inactive),64.3 µM (inactive),41.8 µM (inactive),63.2 µM (inactive),> 100 µM (inactive),81.5 µM (inactive),37.4 µM (inactive),50.7 µM (inactive),> 100 µM (inactive),> 100 µM (inactive)
COC(=O)/C1=C/C2CC(/C=C(/c3ccccc3)C(=O)O1)C2,29.9 µM (inactive),,19.1 µM (inactive),22.5 µM (inactive),17.5 µM (inactive),17 µM (inactive),32.6 µM (inactive),,18.3 µM (inactive),32.9 µM (inactive),17.7 µM (inactive),35.4 µM (inactive),5.93 µM (inactive),32.7 µM (inactive),14.7 µM (inactive),16.7 µM (inactive),33.2 µM (inactive),36.7 µM (inactive)
O=c1[nH]c(=O)n(COCc2ccccc2)c2ccc(Br)cc12,> 100 µM (inactive),> 100 µM (inactive),> 100 µM (inactive),> 100 µM (inactive),> 100 µM (inactive),,89.5 µM (inactive),60.8 µM (inactive),,87.7 µM (inactive),99.3 µM (inactive),64.3 µM (inactive),43.4 µM (inactive),> 100 µM (inactive),> 100 µM (inactive),,85.3 µM (inactive),> 100 µM (inactive)
O=C(CSc1nc(-c2ccccc2)c(-c2ccccc2)[nH]1)N/N=C/c1ccc(O)cc1,24.2 µM (inactive),,19.5 µM (inactive),20 µM (inactive),17.9 µM (inactive),3.76 µM (inactive),20 µM (inactive),,25.7 µM (inactive),22.4 µM (inactive),,32.5 µM (inactive),19.7 µM (inactive),27.6 µM (inactive),22.1 µM (inactive),20.2 µM (inactive),18.2 µM (inactive),24.8 µM (inactive)
COC(=O)C(NC(=O)CSc1nnc(COc2ccc(Cl)cc2)n1-c1ccccc1)C(C)C (configuration not stated),35.2 µM (inactive),10.3 µM (inactive),23.4 µM (inactive),16.7 µM (inactive),26.2 µM (inactive),25.4 µM (inactive),33.2 µM (inactive),25.6 µM (inactive),,22 µM (inactive),,29.3 µM (inactive),14.6 µM (inactive),15.6 µM (inactive),17.8 µM (inactive),10.6 µM (inactive),16.5 µM (inactive),37.2 µM (inactive)
NNC(=O)/C(=C/c1ccc(Cl)c(Cl)c1)NC(=O)c1ccccc1,> 100 µM (inactive),,> 100 µM (inactive),> 100 µM (inactive),> 100 µM (inactive),> 100 µM (inactive),> 100 µM (inactive),76 µM (inactive),38.5 µM (inactive),> 100 µM (inactive),> 100 µM (inactive),> 100 µM (inactive),> 100 µM (inactive),> 100 µM (inactive),> 100 µM (inactive),,> 100 µM (inactive),
